What all share (test): Kinase assay, binding constants (Kd), kinase-tagged T7 phage, qPCR
In general terms: Quantitative PCR measures a nucleic acid by following its amplification.

One experiment addresses FGFR1 (Homo sapiens (Human), UniProt P11362). How it is done:
(§1) Kinase-tagged T7 phage strains were prepared in an E. coli host derived from the BL21 strain. E. coli were grown to log-phase and infected with T7 phage and incubated with shaking at 32° C. until lysis. The lysates were centrifuged and filtered to remove cell debris. Streptavidin-coated magnetic beads were treated with biotinylated small molecule ligands for 30 minutes at room temperature to generate affinity resins for kinase assays. The liganded beads were blocked with excess biotin and washed with blocking buffer SeaBlock (Pierce), […], 1 mM DTT to remove unbound ligand and to reduce non-specific binding.
(§2) Test compounds were prepared as 111λ stocks in 10000 DMS0. Kds were determined using an 11-point 3-fold compound dilution series with three DMSO control points. […] The compounds were then diluted directly into the assays such that the final concentration of DMSO was 0.9%. All reactions performed in polypropylene 384-well plate. Each was a final volume of 0.02 ml. […] The beads were then re-suspended in elution buffer (1×PBS, 0.05% Tween […] non-biotinylated affinity ligand) and incubated at room temperature with shaking for 30 minutes. The kinase concentration in the eluates was measured by qPCR.
(§3) Binding constants were calculated with a standard dose-response curve using the Hill equation: […]
(§4) The Hill Slope was set to −1. Curves were fitted using a non-linear least square fit with the Levenberg-Marquardt algorithm.

The target in the next experiment is FGFR2 (Homo sapiens (Human), UniProt P21802). How it is done:
as §1, §2, §3, §4

In another experiment the target is FGFR3 (Homo sapiens (Human), UniProt P22607). How it is done: as §1, §2, §3, §4
The next experiment addresses FGFR3 (V555M) (Homo sapiens (Human), UniProt P22607, V555M). To be noted: V555M mutant. How it is done:
as §1, §2, §3, §4

A further experiment deals with FGFR4 (Homo sapiens (Human), UniProt P22455). How it is done: as §1, §2, §3, §4
Chain of FGFR4 (P22455 22-802): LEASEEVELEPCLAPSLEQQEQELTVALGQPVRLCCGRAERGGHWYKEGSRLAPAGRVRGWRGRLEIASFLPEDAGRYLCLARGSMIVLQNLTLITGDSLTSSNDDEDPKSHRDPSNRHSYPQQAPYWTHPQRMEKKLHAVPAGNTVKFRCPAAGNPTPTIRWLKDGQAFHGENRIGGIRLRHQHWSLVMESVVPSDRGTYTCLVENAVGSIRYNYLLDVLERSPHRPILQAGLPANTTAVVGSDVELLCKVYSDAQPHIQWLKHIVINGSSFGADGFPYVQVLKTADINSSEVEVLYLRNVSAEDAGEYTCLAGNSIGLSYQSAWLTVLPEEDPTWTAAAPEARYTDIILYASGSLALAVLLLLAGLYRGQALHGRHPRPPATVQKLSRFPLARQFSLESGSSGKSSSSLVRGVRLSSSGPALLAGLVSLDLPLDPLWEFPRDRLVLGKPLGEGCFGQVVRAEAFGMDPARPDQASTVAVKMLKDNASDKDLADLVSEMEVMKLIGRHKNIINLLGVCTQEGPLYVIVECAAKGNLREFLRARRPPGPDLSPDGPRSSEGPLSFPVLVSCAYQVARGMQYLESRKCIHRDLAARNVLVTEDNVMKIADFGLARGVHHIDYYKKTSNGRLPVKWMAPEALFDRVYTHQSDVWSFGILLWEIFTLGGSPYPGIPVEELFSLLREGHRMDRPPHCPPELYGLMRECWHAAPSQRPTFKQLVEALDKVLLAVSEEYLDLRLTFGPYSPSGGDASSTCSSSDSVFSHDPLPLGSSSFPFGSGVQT

Chain of FGFR3 (P22607 23-806): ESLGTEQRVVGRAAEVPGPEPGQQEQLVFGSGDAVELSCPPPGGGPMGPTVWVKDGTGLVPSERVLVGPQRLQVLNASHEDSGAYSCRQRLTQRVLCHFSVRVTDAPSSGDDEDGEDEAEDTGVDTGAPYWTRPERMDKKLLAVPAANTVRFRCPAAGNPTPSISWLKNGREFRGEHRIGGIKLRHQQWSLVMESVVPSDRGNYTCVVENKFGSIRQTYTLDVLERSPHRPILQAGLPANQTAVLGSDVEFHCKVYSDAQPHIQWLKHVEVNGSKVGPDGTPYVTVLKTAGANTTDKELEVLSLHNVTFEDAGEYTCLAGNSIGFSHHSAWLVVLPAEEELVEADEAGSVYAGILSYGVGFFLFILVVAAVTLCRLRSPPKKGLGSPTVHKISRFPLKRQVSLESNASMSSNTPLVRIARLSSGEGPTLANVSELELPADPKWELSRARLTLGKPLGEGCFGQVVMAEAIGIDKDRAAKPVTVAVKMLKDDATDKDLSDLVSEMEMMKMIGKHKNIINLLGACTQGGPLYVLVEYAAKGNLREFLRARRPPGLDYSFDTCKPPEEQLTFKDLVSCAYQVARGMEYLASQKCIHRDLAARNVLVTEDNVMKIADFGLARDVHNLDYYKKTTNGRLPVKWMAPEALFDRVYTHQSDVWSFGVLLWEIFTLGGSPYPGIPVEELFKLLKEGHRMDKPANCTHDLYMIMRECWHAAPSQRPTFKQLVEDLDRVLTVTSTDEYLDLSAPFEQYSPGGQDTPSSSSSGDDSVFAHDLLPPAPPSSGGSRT
Chain of FGFR3 (V555M) (P22607 23-806 V555M): as the sequence (P22607 23-806) above, with V533M counted along it
Chain of FGFR1 (P11362 22-822): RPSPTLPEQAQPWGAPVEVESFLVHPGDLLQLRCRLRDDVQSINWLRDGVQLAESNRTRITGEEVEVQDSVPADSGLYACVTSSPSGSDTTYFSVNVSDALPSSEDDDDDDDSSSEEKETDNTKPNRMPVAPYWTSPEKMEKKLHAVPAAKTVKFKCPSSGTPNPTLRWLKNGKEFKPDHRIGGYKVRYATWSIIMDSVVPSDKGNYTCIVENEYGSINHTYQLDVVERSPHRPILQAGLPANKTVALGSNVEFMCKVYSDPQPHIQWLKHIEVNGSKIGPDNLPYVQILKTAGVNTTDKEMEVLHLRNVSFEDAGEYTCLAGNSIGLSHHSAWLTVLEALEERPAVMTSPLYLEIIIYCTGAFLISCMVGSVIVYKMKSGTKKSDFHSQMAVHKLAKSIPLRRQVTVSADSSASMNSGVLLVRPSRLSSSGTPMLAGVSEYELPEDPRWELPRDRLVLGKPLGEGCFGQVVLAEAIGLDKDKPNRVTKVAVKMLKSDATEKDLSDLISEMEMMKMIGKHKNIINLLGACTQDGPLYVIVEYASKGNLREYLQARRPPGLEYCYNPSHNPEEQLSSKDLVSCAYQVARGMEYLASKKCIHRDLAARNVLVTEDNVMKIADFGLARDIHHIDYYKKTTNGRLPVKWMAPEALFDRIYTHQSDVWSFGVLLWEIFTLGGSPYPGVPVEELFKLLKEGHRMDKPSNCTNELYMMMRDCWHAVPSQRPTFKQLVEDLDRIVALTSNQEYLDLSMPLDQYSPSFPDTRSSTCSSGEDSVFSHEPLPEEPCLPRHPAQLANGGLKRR
Chain of FGFR2 (P21802 22-821): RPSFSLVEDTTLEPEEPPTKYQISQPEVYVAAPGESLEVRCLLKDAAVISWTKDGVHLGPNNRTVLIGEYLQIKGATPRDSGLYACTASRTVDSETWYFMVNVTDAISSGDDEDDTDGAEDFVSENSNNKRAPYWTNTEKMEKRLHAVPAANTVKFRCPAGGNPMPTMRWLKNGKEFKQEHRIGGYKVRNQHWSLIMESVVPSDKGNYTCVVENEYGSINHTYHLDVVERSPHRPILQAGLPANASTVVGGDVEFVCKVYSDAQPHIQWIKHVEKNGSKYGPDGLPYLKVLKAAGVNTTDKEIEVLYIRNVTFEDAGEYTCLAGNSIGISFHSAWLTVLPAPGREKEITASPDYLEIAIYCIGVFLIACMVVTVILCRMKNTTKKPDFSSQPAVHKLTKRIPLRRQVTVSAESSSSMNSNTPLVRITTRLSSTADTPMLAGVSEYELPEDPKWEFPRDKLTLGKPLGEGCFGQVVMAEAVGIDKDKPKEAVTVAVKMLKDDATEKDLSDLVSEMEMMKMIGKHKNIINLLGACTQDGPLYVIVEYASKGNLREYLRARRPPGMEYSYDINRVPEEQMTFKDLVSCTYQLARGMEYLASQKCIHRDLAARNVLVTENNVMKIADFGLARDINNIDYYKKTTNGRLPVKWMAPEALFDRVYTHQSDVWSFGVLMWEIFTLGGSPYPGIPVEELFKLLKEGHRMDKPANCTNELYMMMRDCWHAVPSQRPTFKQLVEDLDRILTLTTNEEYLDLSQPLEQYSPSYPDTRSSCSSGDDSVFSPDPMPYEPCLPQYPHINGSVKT

Consider `Cc1cc(-c2n[nH]c3ccc(O[C@H](C)c4c(Cl)cncc4Cl)cc23)cnc1N1CCOCC1` [Example 101, 4-[5-[5-[(1R)-1-(3,5-dichloro-4-pyridyl)ethoxy]-1H-indazol-3-yl]-3-methyl-2-pyridyl]morpholine], for which the dissociation constant Kd on FGFR1 lay in the range of 20 to 100 nM; on FGFR2, 20 to 100 nM; on FGFR3, 1 to 20 nM; at FGFR3 (V555M) it was 1 to 20 nM; at FGFR4, 1 to 20 nM.
As to `C[C@@H](Oc1ccc2[nH]nc(-c3cnc(N4CCOCC4)c(C#N)c3)c2c1)c1c(Cl)cncc1Cl` [Example 102, 5-[5-[(1R)-1-(3,5-dichloro-4-pyridyl)ethoxy]-1H-indazol-3-yl]-2-morpholino-pyridine-3-carbonitrile], the Kd on FGFR1 lay in the range of 20 to 100 nM; at FGFR2, 20 to 100 nM; on FGFR3 it was 1 to 20 nM; at FGFR3 (V555M) it was 1 to 20 nM; at FGFR4 it was 1 to 20 nM.
For `C[C@@H](Oc1ccc2[nH]nc(-c3ccc(N4CCOCC4)cn3)c2c1)c1c(Cl)cncc1Cl` [Example 103, 4-[6-[5-[(1R)-1-(3,5-dichloro-4-pyridyl)ethoxy]-1H-indazol-3-yl]-3-pyridyl]morpholine], the Kd on FGFR1 was 1 to 20 nM; at FGFR2 it was 20 to 100 nM; on FGFR3, 1 to 20 nM; on FGFR3 (V555M), 1 to 20 nM; on FGFR4, 1 to 20 nM.
With `COc1cc(-c2n[nH]c3ccc(O[C@H](C)c4c(Cl)cncc4Cl)cc23)cnc1N1CCOCC1` [Example 105, 4-[5-[5-[(1R)-1-(3,5-dichloro-4-pyridyl)ethoxy]-1H-indazol-3-yl]-3-methoxy-2-pyridyl]morpholine], the Kd at FGFR1 was more than 300 nM; at FGFR2 it was more than 300 nM; at FGFR3 it was 100 to 300 nM; on FGFR3 (V555M), 100 to 300 nM; at FGFR4, 20 to 100 nM.
As to `C[C@@H](Oc1ccc2[nH]nc(-c3ccc(N4CC5(CCNCC5)C4)nc3)c2c1)c1c(Cl)cncc1Cl` [Example 110, 3-[6-(2,7-diazaspiro[3.5]nonan-2-yl)-3-pyridyl]-5-[(1R)-1-(3,5-dichloro-4-pyridyl)ethoxy]-1H-indazole], the Kd at FGFR1, on FGFR2, on FGFR3, on FGFR3 (V555M) and at FGFR4 was 1 to 20 nM in each case.
Regarding `C[C@@H](Oc1ccc2[nH]nc(-c3cnc(N4CC5(CNC5)C4)nc3)c2c1)c1c(Cl)cncc1Cl` [Example 118, 3-[2-(2,6-diazaspiro[3.3]heptan-2-yl)pyrimidin-5-yl]-5-[(1R)-1-(3,5-dichloro-4-pyridyl)ethoxy]-1H-indazole], the dissociation constant (Kd) at FGFR1 lay in the range of 1 to 20 nM; at FGFR2 it was 20 to 100 nM; at FGFR3, 1 to 20 nM; at FGFR3 (V555M), 1 to 20 nM; at FGFR4, 1 to 20 nM.
Turning to `CCOC(=O)N1CCC2(CC1)CN(c1ncc(-c3n[nH]c4ccc(O[C@H](C)c5c(Cl)cncc5Cl)cc34)cn1)C2` [Example 126, ethyl 2-[5-[5-[(1R)-1-(3,5-dichloro-4-pyridyl)ethoxy]-1H-indazol-3-yl]pyrimidin-2-yl]-2,7-diazaspiro[3.5]nonane-7-carboxylate], the equilibrium dissociation constant (Kd) at FGFR1 was 100 to 300 nM; on FGFR2, 100 to 300 nM; at FGFR3 it was 1 to 20 nM; at FGFR3 (V555M) it was 1 to 20 nM; on FGFR4 it was 1 to 20 nM.
For `C[C@@H](Oc1ccc2[nH]nc(-c3cnc(N4CC5(CCCNC5)C4)nc3)c2c1)c1c(Cl)cncc1Cl` [Example 132, 3-[2-(2,8-diazaspiro[3.5]nonan-2-yl)pyrimidin-5-yl]-5-[(1R)-1-(3,5-dichloro-4-pyridyl)ethoxy]-1H-indazole], the Kd at FGFR1, at FGFR2, on FGFR3, at FGFR3 (V555M) and at FGFR4 was 1 to 20 nM each time.
For the compound `C[C@@H](Oc1ccc2[nH]nc(-c3cnc(N4CC5(CCNCC5)C4)nc3)c2c1)c1c(Cl)cncc1Cl` [Example 133, 3-[2-(2,7-diazaspiro[3.5]nonan-2-yl)pyrimidin-5-yl]-5-[(1R)-1-(3,5-dichloro-4-pyridyl)ethoxy]-1H-indazole], the dissociation constant Kd at FGFR1, on FGFR2, at FGFR3, at FGFR3 (V555M) and at FGFR4 was 1 to 20 nM in each case.
`C[C@@H](Oc1ccc2[nH]nc(-c3cnc(N4CC5(CCCN(S(C)(=O)=O)C5)C4)nc3)c2c1)c1c(Cl)cncc1Cl` [Example 134, 5-[(1R)-1-(3,5-dichloro-4-pyridyl)ethoxy]-3-[2-(8-methylsulfonyl-2,8-diazaspiro[3.5]nonan-2-yl)pyrimidin-5-yl]-1H-indazole]: the dissociation constant (Kd) fell in the range of 20 to 100 nM at FGFR1; 20 to 100 nM at FGFR2; 1 to 20 nM at FGFR3; 1 to 20 nM at FGFR3 (V555M); 1 to 20 nM at FGFR4.
Regarding `Cc1cnnc(C)c1[C@H](C)Oc1ccc2[nH]nc(-c3cnc(N4CC5(CCS(=O)(=O)C5)C4)nc3)c2c1` [Example 147, 2-[5-[5-[(1S)-1-(3,5-dimethylpyridazin-4-yl)ethoxy]-1H-indazol-3-yl]pyrimidin-2-yl]-6λ^6-thia-2-azaspiro[3.4]octane 6,6-dioxide], the Kd on FGFR1, at FGFR2, at FGFR3, on FGFR3 (V555M) and at FGFR4 was more than 300 nM throughout.
As to `Cc1cnnc(C)c1[C@H](C)Oc1ccc2[nH]nc(-c3ccc(N4CC5(C4)CN(S(C)(=O)=O)C5)nc3)c2c1` [Example 149, 5-[(1S)-1-(3,5-dimethylpyridazin-4-yl)ethoxy]-3-[6-(2-methylsulfonyl-2,6-diazaspiro[3.3]heptan-6-yl)-3-pyridyl]-1H-indazole], the dissociation constant Kd on FGFR1 was more than 300 nM; at FGFR2 it was 100 to 300 nM; on FGFR3, 20 to 100 nM; on FGFR3 (V555M) it was 20 to 100 nM; on FGFR4, 100 to 300 nM.
For the compound `COC(=O)N1CC2(C1)CN(c1ccc(-c3n[nH]c4ccc(O[C@H](C)c5c(C)cnnc5C)cc34)cn1)C2` [Example 150, methyl 6-[5-[5-[(1R)-1-(3,5-dimethylpyridazin-4-yl)ethoxy]-1H-indazol-3-yl]-2-pyridyl]-2,6-diazaspiro[3.3]heptane-2-carboxylate], the dissociation constant Kd at FGFR1, on FGFR2, at FGFR3, on FGFR3 (V555M) and on FGFR4 was 1 to 20 nM each time.
On to `CCOC(=O)N1CC2(C1)CN(c1ccc(-c3n[nH]c4ccc(O[C@@H](C)c5c(C)cnnc5C)cc34)cn1)C2` [Example 151, ethyl 6-[5-[5-[(1S)-1-(3,5-dimethylpyridazin-4-yl)ethoxy]-1H-indazol-3-yl]-2-pyridyl]-2,6-diazaspiro[3.3]heptane-2-carboxylate], for which the equilibrium dissociation constant (Kd) at FGFR1 was more than 300 nM; on FGFR2, 100 to 300 nM; at FGFR3, 20 to 100 nM; at FGFR3 (V555M), 1 to 20 nM; at FGFR4, 100 to 300 nM.
`Cc1cnnc(C)c1[C@@H](C)Oc1ccc2[nH]nc(-c3cnc(N4CCC5(CC4)CCS(=O)(=O)C5)nc3)c2c1` [Example 152, 8-[5-[5-[(1R)-1-(3,5-dimethylpyridazin-4-yl)ethoxy]-1H-indazol-3-yl]pyrimidin-2-yl]-2λ^6-thia-8-azaspiro[4.5]decane 2,2-dioxide]: the Kd at FGFR1 lay in the range of 20 to 100 nM; at FGFR2 it was 1 to 20 nM; at FGFR3, 1 to 20 nM; on FGFR3 (V555M) it was 1 to 20 nM; at FGFR4, 1 to 20 nM.
As to `COC(=O)N1CC2(C1)CN(c1ccc(-c3n[nH]c4ccc(O[C@@H](C)c5c(C)cnnc5C)cc34)cn1)C2` [Example 153, methyl 6-[5-[5-[(1S)-1-(3,5-dimethylpyridazin-4-yl)ethoxy]-1H-indazol-3-yl]-2-pyridyl]-2,6-diazaspiro[3.3]heptane-2-carboxylate], the Kd at FGFR1 was more than 300 nM; on FGFR2, 100 to 300 nM; at FGFR3 it was 20 to 100 nM; on FGFR3 (V555M), 1 to 20 nM; on FGFR4, 100 to 300 nM.
`Cc1cnnc(C)c1[C@H](C)Oc1ccc2[nH]nc(-c3cnc(N4CCC5(CC4)CCS(=O)(=O)C5)nc3)c2c1` [Example 154, 8-[5-[5-[(1S)-1-(3,5-dimethylpyridazin-4-yl)ethoxy]-1H-indazol-3-yl]pyrimidin-2-yl]-2λ^6-thia-8-azaspiro[4.5]decane 2,2-dioxide]: the Kd at FGFR1 is more than 300 nM; on FGFR2, more than 300 nM; on FGFR3 it was 100 to 300 nM; at FGFR3 (V555M), 20 to 100 nM; on FGFR4, 100 to 300 nM.
Consider `Cc1cnnc(C)c1[C@H](C)Oc1ccc2[nH]nc(-c3cnc(N4CC5(C4)CN(S(C)(=O)=O)C5)nc3)c2c1` [Example 155, 5-[(1S)-1-(3,5-dimethylpyridazin-4-yl)ethoxy]-3-[2-(2-methylsulfonyl-2,6-diazaspiro[3.3]heptan-6-yl)pyrimidin-5-yl]-1H-indazole], for which the dissociation constant (Kd) on FGFR1 was more than 300 nM; on FGFR2, more than 300 nM; at FGFR3 it was more than 300 nM; at FGFR3 (V555M), more than 300 nM; on FGFR4, 100 to 300 nM.

For orientation: Kd means the constant that tells how readily two partners part at equilibrium. Lower therefore signals higher affinity.

The values are drawn from US20240109865A1, “INDAZOLE COMPOUNDS AS KINASE INHIBITORS” (TYRA BIOSCIENCES, INC., priority 2020, published 2024).
